The source of these data is US10226062B2, “Organic compounds” (priority 2013, dated 2019).

What all share (assay type): in vivo
For assay [1], the system named is umami and salt taste of 0.5% NaCl solution. The experiment in a line: Tasting of NaCl solutions by flavourists (Example 2). Particulars: 0.5% NaCl + 5 ppm compound compared with 0.5% NaCl reference; scale -3 (much lower) to 3 (much higher), 0 = same as reference; average of flavourists' ratings. As for the experimental part:
An aqueous NaCl solution (0.5% by weight) was prepared (reference) to which 5 ppm of a compound of formula (I) was added.
The samples were tasted by a group of flavourists. The intensity of the umami and salt taste of the NaCl solutions comprising a compound of formula (I) (0.5% NaCl; 5 ppm of a compound of formula (I)) was compared with that of the reference (0.5% NaCl) and rated according to the following intensity scale:
Taste effect much lower than reference: −3
Taste effect lower than reference: −2
Taste effect slightly lower than reference: −1
Taste effect same as reference: 0
Taste effect slightly higher than reference: 1
Taste effect higher than reference: 2
Taste effect much higher than reference: 3

Assay [2] relates to taste of NaCl, MSG and Ribo solutions. The experiment in a line: Taste enhancement of NaCl, MSG and Ribo solutions, tasted by flavourists (Example 3). Particulars: linear scale 0 to 10; for Taste intensity NaCl: solution D (0.5% NaCl + 5 ppm compound) compared with A (0.5% NaCl, = 0.0), 5-10 flavourists; for Taste intensity MSG: solution E (0.5% NaCl + 0.03% MSG + 5 ppm compound) compared with B (0.5% NaCl + 0.03% MSG, = 5.0); for Taste intensity Ribo: solution F (0.5% NaCl + 0.015% Ribo + 5 ppm compound) compared with C (0.5% NaCl + 0.015% Ribo, = 5.0). As for the experimental part: Six solutions were prepared: • A a solution of 0.5% NaCl • B a solution of 0.5% NaCl and 0.03% MSG (monosodium glutamate) • C a solution of 0.5% NaCl and 0.015% Ribo (disodium 5-ribonucleotides=E635) • D a solution of 0.5% NaCl and 5 ppm of a compound of formula (I) • E a solution of 0.5% NaCl and 0.03% MSG and 5 ppm a compound of formula (I) • F a solution of 0.5% NaCl and 0.015% Ribo and 5 ppm of a compound of formula (I)
The samples were tasted by a group of 5-10 flavourists aged between 30 and 60. The taste of solution D was compared with that of A to determine the enhancement effect of a compound of formula (I) on NaCl. Similarly, solution E was compared with solution B and solution F with solution C to determine the enhancement effect of a compound of formula (I) on MSG and Ribo respectively. The effect was marked on a linear scale between 0 and 10, the greater the value the greater the effect. For a reference, the taste solutions of B and C were compared with A as well.

Assay [3] concerns taste of vegetarian bouillon. The experiment in a line: Vegetarian bouillon tasting by flavourists (Example 4). The settings on record: 10 ppm compound in vegetarian bouillon (32 g mix in 1 L boiling water); 4 flavourists. As for the experimental part:
A vegetarian bouillon mix was prepared from 204.71 g of sodium chloride, 147.76 g of dextrose monohydrate (ex Tapioca), 0.19 g of celery oleoresin, 0.19 g of oleoresin coriander seed, 418.64 g maltodextrin 5-8 DE, 37.65 g vegetable oil soya bean refined, 28.24 g yeast standard light, 3.76 g of onion powder, 3.76 g of garlic powder, 0.47 g of white pepper and 154.35 g of potato starch.
32 g of the well-mixed ingredients was added to 1 L of boiling water and stirred until completely dissolved.

Assay [4] relates to umami- and salt-taste in comestible products. Description: Taste imparted in comestible products (general statement).

As for `COc1cc(CNCCO)ccc1O.Cl` [N-(2-hydroxyethyl) vanillylamine hydrochloride], in assay [1], the “Taste intensity Salt (NaCl)” value was 0.33 and the “Taste intensity Umami” value is on record as 0.67.

As for `OCC(CO)NCc1ccc2c(c1)OCO2` [N-piperonyl 1,3-dihydroxy-2-propylamine], in assay [1], the “Taste intensity Salt (NaCl)” value is 1.00 and the “Taste intensity Umami” value was determined as 0.50. Besides, in assay [2], the “Taste intensity NaCl” value turned out to be 2.3, the “Taste intensity MSG” value is recorded as 5.0 and the “Taste intensity Ribo” value came to 5.0.

For `CCC(CO)NCc1ccc2c(c1)OCO2` (stereo not shown) [N-piperonyl 1-hydroxy-2-butylamine], in assay [1], the “Taste intensity Salt (NaCl)” value was 0.67 and the “Taste intensity Umami” value came to 0.33. In assay [2], the “Taste intensity NaCl” value came to 1.0, the “Taste intensity MSG” value is on record as 5.3 and the “Taste intensity Ribo” value is 5.0.

Consider `OCCNCc1ccc2c(c1)OCO2` [N-piperonyl 2-hydroxyethylamine], for which, in assay [1], the “Taste intensity Salt (NaCl)” value is given as 0.75 and the “Taste intensity Umami” value was found to be 0.00.

For `CCC(CC)NCc1ccc2c(c1)OCO2` [N-piperonyl 3-pentylamine], the “Taste of test bouillon compared with reference bouillon” value in assay [3] is “more umami, sweeter and more lingering”. For the same molecule, in assay [1], the “Taste intensity Salt (NaCl)” value was found to be 0.50 and the “Taste intensity Umami” value was determined as 0.00. Also, in assay [2], the “Taste intensity NaCl” value was determined as 1.0, the “Taste intensity MSG” value came out at 6.3 and the “Taste intensity Ribo” value came out at 5.3.

In the case of `C[C@H](NCc1ccc2c(c1)OCO2)C(=O)O` [N-piperonyl alanine], in assay [1], the “Taste intensity Salt (NaCl)” value stood at 0.50 and the “Taste intensity Umami” value was determined as 0.00.

As for `CCNCc1ccc2c(c1)OCO2` [N-piperonyl ethylamine], the “Taste imparted in comestible products” value in assay [4] was “imparted an umami- and salt-taste”. The “Taste of test bouillon compared with reference bouillon” value in assay [3] is “more umami, more salty, slightly sweeter and had a slightly more powdery volatile effect”. Moreover, in assay [1], the “Taste intensity Salt (NaCl)” value amounted to 0.75 and the “Taste intensity Umami” value was determined as 0.25. Besides, in assay [2], the “Taste intensity NaCl” value was 1.3, the “Taste intensity MSG” value was determined as 6.6 and the “Taste intensity Ribo” value was 5.6.

For the molecule `CC(C)NCc1ccc2c(c1)OCO2` [N-piperonyl isopropylamine], in assay [1], the “Taste intensity Salt (NaCl)” value is recorded as 0.50 and the “Taste intensity Umami” value amounted to 0.00.

On to `CNCc1ccc2c(c1)OCO2` [N-piperonyl methylamine], for which, in assay [1], the “Taste intensity Salt (NaCl)” value was 0.25 and the “Taste intensity Umami” value is recorded as 0.00.

Take `CCCNCc1ccc2c(c1)OCO2` [N-piperonyl n-propylamine]: in assay [1], the “Taste intensity Salt (NaCl)” value came to 1.00 and the “Taste intensity Umami” value was 0.00.

In the case of `CCNCc1ccc(O)c(OC)c1.Cl` [N-vanillyl ethylamine hydrochloride], in assay [1], the “Taste intensity Salt (NaCl)” value is 0.67 and the “Taste intensity Umami” value came to 0.67.
